Measured values as given in US10822374B2, “Cancer therapies and diagnostics” (Dana-Farber Cancer Institute, Inc., priority 2010, dated 2020).
“Also recorded” adds a separate entry of the source. Like-named read-outs stand apart in the source and are kept apart here. Positions of bridges follow the written chain, without caps; N, C: chain ends. Non-standard residues stand in square brackets, D forms with d. No end group written: not given here. R8 = C=CCCCCCC[C@@](C)(N)C(=O)O; S5 = C=CCCC[C@](C)(N)C(=O)O

How the values were obtained:
[1] = tested on: JEG-3 cells; assay: Caspase-3/7 activation in JEG-3 cells; type: cell-based, human; conditions: JEG-3, 0.3-10 μM, 12 h
Protocol: Apoptosis studies were performed as follows.

[2] = tested on: p53 transcriptional targets HDM2, p21, MIC-1; assay: qPCR of p53 transcriptional targets in JEG-3 cells; conditions: JEG-3, 20 μM, 6 h
Protocol: qPCR studies were performed as follows. […] Total RNA was reverse transcribed to cDNA using Superscript III reverse transcriptase (Invitrogen). The derived cDNA was employed as the substrate to measure relative transcript levels by qRT-PCR on a PRISM 7700 system using SYBR Green PCR Master Mix (Applied Biosystems). Primers specific for HDM2, p21, MIC-1, and the UBB control were employed. Triplicate reactions were prepared in 96-well optical PCR plates.

[3] = tested on: JEG-3 xenografts; assay: JEG-3 murine xenograft tumor growth; conditions: 10 mg/kg i.v. once daily for 4 days
[4] = tested on: HCT116 cells deficient in p53; assay: CellTiter-Glo viability, HCT116 deficient in p53; type: cell-based, human; conditions: HCT116 with genetic deletion of p53, 24 h
Protocol: (§1) Finally, WS1 normal human fibroblasts were tested to evaluate relative toxicity in tumor versus non-transformed cells.
(§2) Cultured cells were maintained in the appropriate media (SJSA-1, SJSA-X, SJSA-DD, A431 (DMEM); JEG-3, MCF-7, WS1 (EMEM); HCT116 (McCoy's 5A)) supplemented with fetal calf serum and penicillin/streptomycin. […] Viability was assayed by addition of CellTiter-Glo™ chemiluminescence reagent according to the manufacturer's protocol (Promega). Luminescence was measured using a Spectramax M5 microplate reader (Molecular Devices). […] All viability assays were performed in at least triplicate.

[5] = tested on: SJSA-1 cells; assay: CellTiter-Glo viability, SJSA-1; type: cell-based, human; conditions: SJSA-1 (HDM2++/HDMX−), 24 h
Protocol: (§3) All viability assays were performed in at least triplicate.

[6] = tested on: RKO or SJSA-1 cancer cells; assay: Cell viability assays, RKO or SJSA-1 cancer cells; type: cell-based
[7] = tested on: JEG-3 cells; assay: CellTiter-Glo viability, JEG-3; type: cell-based, human; conditions: JEG-3 (HDM2−/HDMX++), 24 h
Protocol: as §3

[8] = tested on: HCT116 cells; assay: CellTiter-Glo viability, HCT116; type: cell-based, human; conditions: HCT116 (HDM2+/HDMX+), 24 h
Protocol: as §3

[9] = tested on: SJSA-DD cells; assay: CellTiter-Glo viability, SJSA-DD; type: cell-based, human; conditions: SJSA-1 overexpressing dominant negative p53 (SJSA-DD), 24 h
Protocol: as §1, §2

[10] = tested on: HDM2, p21, and MIC-1; assay: qPCR of p53 targets in excised JEG-3 tumors; conditions: tumors excised day 5
[11] = tested on: SJSA-X cells; assay: CellTiter-Glo viability, SJSA-X; type: cell-based, human; conditions: SJSA-X (HDM2++/HDMX++), 24 h
Protocol: as §3

[12] = tested on: bearing the R273H p53 mutation; assay: CellTiter-Glo viability, A431; type: cell-based, human; conditions: A431, inactivating p53 point mutation, 24 h
Protocol: as §1, §2

[13] = tested on: MCF-7 cells; assay: CellTiter-Glo viability, MCF-7; type: cell-based, human; conditions: MCF-7 (HDM2+/HDMX+), 24 h
Protocol: as §3

[14] = tested on: p53; assay: p53 western of JEG-3 cellular extracts (input); type: cell-based, human; conditions: JEG-3, 20 μM, 6 hours
Protocol: ; Bethyl Laboratories) and western analysis of electrophoresed protein was conducted using p53 (DO-1; EMD Chemicals or FL-393; Santa Cruz Biotechnology), HDMX (MDMX-82; Abcam), and HAUSP (anti-USP7, Bethyl Labs) antibodies, and Western Lightning chemiluminescence reagent (PerkinElmer). […]

[15] = molecular target: T1, full-length HDMX (Homo sapiens, UniProt O15151); assay: Fluorescence polarization direct binding to HDMX; conditions: FITC-labeled peptides, same dose ranges
T1 construct: plasmid encoding full-length HDMX with N-terminal thioredoxin, S, and hexahistidine tags; thioredoxin (N, cleaved yes); S-tag (N, cleaved yes); hexahistidine (N, cleaved yes); made in house; host or cells: Escherichia coli BL21 (DE3) pLysS, pET32-LIC vector
T1 sequence (O15151 1-490): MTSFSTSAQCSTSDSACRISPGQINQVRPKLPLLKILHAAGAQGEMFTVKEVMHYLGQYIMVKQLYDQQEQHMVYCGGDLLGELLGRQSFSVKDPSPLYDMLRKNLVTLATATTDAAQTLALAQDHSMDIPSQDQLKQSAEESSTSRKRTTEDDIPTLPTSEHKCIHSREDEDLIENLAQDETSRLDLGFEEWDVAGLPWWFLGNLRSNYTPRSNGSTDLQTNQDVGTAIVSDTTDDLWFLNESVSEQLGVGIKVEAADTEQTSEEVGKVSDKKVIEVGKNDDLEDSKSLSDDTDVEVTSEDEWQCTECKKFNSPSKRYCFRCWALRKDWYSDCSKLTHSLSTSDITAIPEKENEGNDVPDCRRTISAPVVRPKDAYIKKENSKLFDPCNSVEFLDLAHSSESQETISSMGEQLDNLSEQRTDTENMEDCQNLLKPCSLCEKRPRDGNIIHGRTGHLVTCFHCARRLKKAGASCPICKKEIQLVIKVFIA
Protocol: Fluorescence polarization was then measured at equilibrium on a SpectraMax M5 microplate reader (Molecular Devices).

[16] = tested on: WS1 normal human fibroblasts; assay: CellTiter-Glo viability, WS1 fibroblasts
Protocol: as §1, §2

[17] = Proteolytic stability; type: in vitro ADME
Source text: The amide bond of the peptide backbone is susceptible to hydrolysis by proteases, thereby rendering peptidic compounds vulnerable to rapid degradation in vivo. Peptide helix formation, however, typically buries the amide backbone and therefore may shield it from proteolytic cleavage. The peptidomimetic macrocycles of the present invention may be subjected to in vitro trypsin proteolysis to assess for any change in degradation rate compared to a corresponding uncrosslinked polypeptide. For example, the peptidomimetic macrocycle and a corresponding uncrosslinked polypeptide are incubated with trypsin agarose and the reactions quenched at various time points by centrifugation and subsequent HPLC injection to quantitate the residual substrate by ultraviolet absorption at 280 nm. Briefly, the peptidomimetic macrocycle and peptidomimetic precursor (5 mcg) are incubated with trypsin agarose (Pierce) (S/E~125) for 0, 10, 20, 90, and 180 minutes. Reactions are quenched by tabletop centrifugation at high speed; remaining substrate in the isolated supernatant is quantified by HPLC-based peak detection at 280 nm.

[18] = tested on: SJSA-X cells; assay: FITC-peptide detection in SJSA-X cellular lysates (cell penetration); conditions: 12 hours
Protocol: Cells were then lysed and anti-FITC pull down was performed, followed by HDM2 and HDMX western analyses.

[19] = molecular target: T2, HDMX (Homo sapiens, UniProt O15151); assay: Anti-FITC pull down in SJSA-X cells, HDMX western; type: cell-based; conditions: 15 μM, 12 hours
T2 construct: expressed in transfected cells; host or cells: SJSA-X (SJSA-1 engineered to overexpress HDMX)
T2 sequence (O15151 1-490): T1 sequence (O15151 1-490)

[20] = molecular target: T3, HDM2 (Homo sapiens, UniProt Q00987); assay: Anti-FITC pull down in SJSA-X cells, HDM2 western; type: cell-based; conditions: 15 μM, 12 hours
T3 construct: endogenous in cells; host or cells: SJSA-X (derivative of SJSA-1 osteosarcoma)
T3 sequence (Q00987 whole entry): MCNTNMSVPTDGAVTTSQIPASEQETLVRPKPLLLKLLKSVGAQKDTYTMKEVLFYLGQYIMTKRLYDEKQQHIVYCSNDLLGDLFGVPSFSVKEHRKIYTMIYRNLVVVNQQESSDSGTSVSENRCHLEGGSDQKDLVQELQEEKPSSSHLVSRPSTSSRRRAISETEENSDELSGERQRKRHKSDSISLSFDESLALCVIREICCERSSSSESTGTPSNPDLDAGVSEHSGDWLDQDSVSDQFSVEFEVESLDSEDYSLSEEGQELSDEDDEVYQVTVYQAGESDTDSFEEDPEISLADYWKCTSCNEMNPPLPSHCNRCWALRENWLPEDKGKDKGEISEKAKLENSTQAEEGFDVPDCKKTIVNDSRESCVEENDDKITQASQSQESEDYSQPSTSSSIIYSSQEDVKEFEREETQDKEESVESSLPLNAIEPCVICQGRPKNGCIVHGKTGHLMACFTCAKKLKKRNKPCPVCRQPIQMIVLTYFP

[21] = tested on: p53; assay: p53 western in MCF-7 cells; type: cell-based, human; conditions: MCF-7, 20 μM
Protocol: FIG. 8 is an image of an immunoblot showing that pharmacologic induction of p53-HDMX complexes sensitizes Nutlin-3-resistant cancer cells to HDMX inhibition. […]. Cells were exposed to MG-132 at 10 μM for 6 hours to induce HDMX-p53 complex formation. Cellular extracts (input-left side immunoblot) and anti-HDMX immunoprecipitates (IP:HDMX-right side immunoblot) were analyzed by SDS-PAGE and Western blotting. Levels of p53 and HAUSP are shown.

SAH-p53-8: i, i+7 hydrocarbon-stapled p53 transactivation domain peptide (SEQ ID NO: 10), S20 and P27 replaced with olefinic residues
caspase-3/7 activation [1]: dose-responsive activation of caspase-3/7
upregulation of p53 transcriptional targets (mRNA) compared to vehicle [2]: 5-14 fold
tumor growth [3]: significantly suppressed tumor growth
reduction in tumor burden compared to vehicle and Nutlin-3 ([3]; 5-day evaluation): 37-46%
cell viability [4]: completely insensitive
cell viability [5]: dose-dependent inhibition of cell viability
cell viability [6]: promoted cell death
cell viability [7]: dose-dependent inhibition of cell viability; also recorded: most sensitive
cell viability [8]: dose-dependent inhibition of cell viability
cell viability [9]: completely insensitive
transcriptional activation of HDM2, p21, and MIC-1 in tumors [10]: statistically significant transcriptional activation
cell viability [11]: dose-dependent inhibition of cell viability; also recorded: restoring susceptibility
cell viability [12]: similarly unaffected
cell viability [13]: dose-dependent inhibition of cell viability
p53 levels [14]: increase in p53 levels

SAH-p53-8F19A: negative control peptide: SAH-p53-8 with F19 substituted by alanine (SEQ ID NO: 13) (QSQQTA[R8]NLWRLL[S5]QN; staple 7-14)
interaction with HDMX [15]: no interaction
cell viability [4]: inactive
cell viability [5]: inactive
cell viability [7]: inactive
cell viability [8]: inactive
cell viability [9]: inactive
cell viability [11]: inactive
cell viability [12]: inactive
cell viability [13]: inactive
viability of normal human fibroblasts [16]: inactive

CC(=O)N[C@@H](CC(C)C)C(=O)N[C@@H](CO)C(=O)N[C@@H](CCC(N)=O)C(=O)N[C@@H](CCC(=O)O)C(=O)N[C@H](C(=O)N[C@@H](Cc1ccccc1)C(=O)N[C@]1(C)CCCCCCC=CCCC[C@@](C)(C(=O)N[C@@H](CCC(=O)O)C(=O)N[C@@H](CC(N)=O)C(N)=O)NC(=O)[C@H](CC(C)C)NC(=O)[C@H](CC(C)C)NC(=O)[C@H](CCCCN)NC(=O)[C@H](Cc2c[nH]c3ccccc23)NC(=O)[C@H](CC(C)C)NC(=O)[C@H](CC(=O)O)NC1=O)[C@@H](C)O [SAH-p53-4]
proteolytic stability [17]: improved proteolytic stability

CC(C)C[C@@H]1NC(=O)[C@H](CCCNC(=N)N)NC(=O)[C@H](Cc2c[nH]c3ccccc23)NC(=O)[C@H](CC(C)C)NC(=O)[C@H](CC(N)=O)NC(=O)[C@](C)(NC(=O)[C@H](Cc2ccccc2)NC(=O)[C@@H](NC(=O)[C@H](CCC(N)=O)NC(=O)[C@H](CCC(N)=O)NC(=O)[C@H](CO)NC(=O)[C@H](CCC(N)=O)NC(=O)CCNC(=S)Nc2ccc3c(c2)C(=O)OC32c3ccc(O)cc3Oc3cc(O)ccc32)[C@@H](C)O)CCCCCCC=CCCC[C@@](C)(C(=O)N[C@@H](CCC(N)=O)C(=O)N[C@@H](CC(N)=O)C(N)=O)NC(=O)[C@H](CC(C)C)NC1=O [FITC-SAH-p53-8]
penetration of intact SJSA-X cells [18]: efficiently penetrated intact SJSA-X cells
co-immunoprecipitation of native HDMX [19]: specifically co-immunoprecipitated
co-immunoprecipitation of native HDM2 [20]: specifically co-immunoprecipitated

COc1ccc(C2=N[C@@H](c3ccc(Cl)cc3)[C@@H](c3ccc(Cl)cc3)N2C(=O)N2CCNC(=O)C2)c(OC(C)C)c1 [Nutlin-3, reference compound]
caspase-3/7 activation [1]: little effect
upregulation of p53 transcriptional targets (mRNA) compared to vehicle [2]: 1.5-4 fold
p53 levels [21]: elevate p53 levels
tumor growth [3]: not affected
cell viability [5]: very sensitive
cell viability [7]: little to no response; also recorded: most resistant
cell viability [8]: modestly sensitive
cell viability [9]: completely insensitive
cell viability [11]: little to no response; also recorded: ineffective as a single agent
cell viability [13]: modestly sensitive
viability of normal human fibroblasts ([16]; WS1, 24 h): no impact
p53 levels [14]: increase in p53 levels
